#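 Five concentrations, 48 hours, 96-well plates. The concentration for full growth arrest is given as TGI.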
# How the values were obtained:
# Assay in all cases: NCI anticancer screen, dose series, 48 h
# 786-0 renal = test system: 786-0 renal
# A498 renal = test system: A498 renal
# A549 NSCLC = test system: A549 NSCLC
# ACHN renal = test system: ACHN renal
# BT-549 breast = test system: BT-549 breast
# CAKI-1 renal = test system: CAKI-1 renal
# CCRF-CEM leukemia = test system: CCRF-CEM leukemia
# COLO 205 colon = test system: COLO 205 colon
# DU-145 prostate = test system: DU-145 prostate
# EKVX NSCLC = test system: EKVX NSCLC
# HCC-2998 colon = test system: HCC-2998 colon
# HCT-116 colon = test system: HCT-116 colon
# HCT-15 colon = test system: HCT-15 colon
# HL-60(TB) leukemia = test system: HL-60(TB) leukemia
# HOP-62 NSCLC = test system: HOP-62 NSCLC
# HOP-92 NSCLC = test system: HOP-92 NSCLC
# HS 578T breast = test system: HS 578T breast
# HT29 colon = test system: HT29 colon
# IGROV1 ovarian = test system: IGROV1 ovarian
# KM12 colon = test system: KM12 colon
# LOX IMVI melanoma = test system: LOX IMVI melanoma
# M14 melanoma = test system: M14 melanoma
# MALME-3M melanoma = test system: MALME-3M melanoma
# MCF7 breast = test system: MCF7 breast
# MDA-MB-231 breast = test system: MDA-MB-231 breast
# MDA-MB-435 = test system: MDA-MB-435
# MDA-N = test system: MDA-N
# MOLT-4 leukemia = test system: MOLT-4 leukemia
# NCI-H226 lung = test system: NCI-H226 lung
# NCI-H23 lung = test system: NCI-H23 lung
# NCI-H460 lung = test system: NCI-H460 lung
# NCI-H522 lung = test system: NCI-H522 lung
# NCI/ADR-RES ovarian = test system: NCI/ADR-RES ovarian
# OVCAR-3 ovarian = test system: OVCAR-3 ovarian
# OVCAR-4 ovarian = test system: OVCAR-4 ovarian
# OVCAR-5 ovarian = test system: OVCAR-5 ovarian
# OVCAR-8 ovarian = test system: OVCAR-8 ovarian
# PC-3 prostate = test system: PC-3 prostate
# RXF 393 renal = test system: RXF 393 renal
# SF-268 CNS = test system: SF-268 CNS
# SF-295 CNS = test system: SF-295 CNS
# SF-539 CNS = test system: SF-539 CNS
# SK-MEL-2 melanoma = test system: SK-MEL-2 melanoma
# SK-MEL-28 melanoma = test system: SK-MEL-28 melanoma
# SK-MEL-5 melanoma = test system: SK-MEL-5 melanoma
# SK-OV-3 ovarian = test system: SK-OV-3 ovarian
# SN12C renal = test system: SN12C renal
# SNB-19 CNS = test system: SNB-19 CNS
# SNB-75 CNS = test system: SNB-75 CNS
# SR leukemia = test system: SR leukemia
# SW-620 colon = test system: SW-620 colon
# T-47D breast = test system: T-47D breast
# TK-10 renal = test system: TK-10 renal
# U251 CNS = test system: U251 CNS
# UACC-257 melanoma = test system: UACC-257 melanoma
# UACC-62 melanoma = test system: UACC-62 melanoma
# UO-31 renal = test system: UO-31 renal
# K-562 leukemia = test system: K-562 leukemia
# RPMI-8226 leukemia = test system: RPMI-8226 leukemia
smiles,measurement,setting,value
CCC(O)CC1OC2(CCC1C)CC1OC(=O)/C=C\C(C)(O)C(O)C(C)C(O)C(OC3CC(OC)C(O)C(C)O3)C(O)C(C)(O)CCC/C=C/C3CC(C)COC3(O)CC(O2)C1C (configuration not stated),TGI,786-0 renal,> 89.4 µM
same,TGI,A498 renal,> 100 µM
same,TGI,A549 NSCLC,> 100 µM
same,TGI,ACHN renal,50.9 µM
same,TGI,BT-549 breast,41.2 µM
same,TGI,CAKI-1 renal,33.3 µM
same,TGI,CCRF-CEM leukemia,> 60.5 µM
same,TGI,COLO 205 colon,17.2 µM
same,TGI,DU-145 prostate,> 100 µM
same,TGI,EKVX NSCLC,26 µM
same,TGI,HCC-2998 colon,62.3 µM
same,TGI,HCT-116 colon,29.5 µM
same,TGI,HCT-15 colon,56.8 µM
same,TGI,HL-60(TB) leukemia,10.6 µM
same,TGI,HOP-62 NSCLC,35.7 µM
same,TGI,HOP-92 NSCLC,> 100 µM
same,TGI,HS 578T breast,38.2 µM
same,TGI,HT29 colon,35.1 µM
same,TGI,IGROV1 ovarian,47.1 µM
same,TGI,KM12 colon,16.8 µM
same,TGI,LOX IMVI melanoma,36.7 µM
same,TGI,M14 melanoma,22 µM
same,TGI,MALME-3M melanoma,35.5 µM
same,TGI,MCF7 breast,30.2 µM
same,TGI,MDA-MB-231 breast,> 77.9 µM
same,TGI,MDA-MB-435,25.4 µM
same,TGI,MDA-N,23.8 µM
same,TGI,MOLT-4 leukemia,7.84 µM
same,TGI,NCI-H226 lung,27.3 µM
same,TGI,NCI-H23 lung,71 µM
same,TGI,NCI-H460 lung,> 75.2 µM
same,TGI,NCI-H522 lung,16.3 µM
same,TGI,NCI/ADR-RES ovarian,45.1 µM
same,TGI,OVCAR-3 ovarian,27.2 µM
same,TGI,OVCAR-4 ovarian,48.6 µM
same,TGI,OVCAR-5 ovarian,53 µM
same,TGI,OVCAR-8 ovarian,24.6 µM
same,TGI,PC-3 prostate,20.4 µM
same,TGI,RXF 393 renal,> 100 µM
same,TGI,SF-268 CNS,90.1 µM
same,TGI,SF-295 CNS,> 41.8 µM
same,TGI,SF-539 CNS,44.9 µM
same,TGI,SK-MEL-2 melanoma,29.6 µM
same,TGI,SK-MEL-28 melanoma,54.6 µM
same,TGI,SK-MEL-5 melanoma,8.9 µM
same,TGI,SK-OV-3 ovarian,> 100 µM
same,TGI,SN12C renal,> 77.3 µM
same,TGI,SNB-19 CNS,> 100 µM
same,TGI,SNB-75 CNS,27.3 µM
same,TGI,SR leukemia,> 80.7 µM
same,TGI,SW-620 colon,> 100 µM
same,TGI,T-47D breast,23.6 µM
same,TGI,TK-10 renal,37 µM
same,TGI,U251 CNS,> 100 µM
same,TGI,UACC-257 melanoma,15.4 µM
same,TGI,UACC-62 melanoma,32.2 µM
same,TGI,UO-31 renal,68.7 µM
CO[C@@H]1C[C@H]2[C@@H]3CC[C@H]([C@H](C)CO)[C@@]3(C)CC[C@@H]2[C@@]2(C)CC[C@H]3C[C@]312,TGI,786-0 renal,> 100 µM
same,TGI,A498 renal,> 100 µM
same,TGI,A549 NSCLC,> 100 µM
same,TGI,ACHN renal,> 100 µM
same,TGI,BT-549 breast,49.9 µM
same,TGI,CAKI-1 renal,> 100 µM
same,TGI,COLO 205 colon,35.3 µM
same,TGI,DU-145 prostate,> 100 µM
same,TGI,EKVX NSCLC,> 100 µM
same,TGI,HCC-2998 colon,> 100 µM
same,TGI,HCT-116 colon,> 100 µM
same,TGI,HCT-15 colon,> 100 µM
same,TGI,HL-60(TB) leukemia,47.2 µM
same,TGI,HOP-62 NSCLC,> 100 µM
same,TGI,HOP-92 NSCLC,63.6 µM
same,TGI,HS 578T breast,> 100 µM
same,TGI,HT29 colon,40.8 µM
same,TGI,IGROV1 ovarian,> 100 µM
same,TGI,K-562 leukemia,> 100 µM
same,TGI,KM12 colon,35.9 µM
same,TGI,LOX IMVI melanoma,46.5 µM
same,TGI,M14 melanoma,> 100 µM
same,TGI,MALME-3M melanoma,> 100 µM
same,TGI,MCF7 breast,47.8 µM
same,TGI,MDA-MB-231 breast,> 100 µM
same,TGI,MDA-MB-435,> 100 µM
same,TGI,MDA-N,> 100 µM
same,TGI,MOLT-4 leukemia,> 100 µM
same,TGI,NCI-H226 lung,> 100 µM
same,TGI,NCI-H23 lung,> 100 µM
same,TGI,NCI-H460 lung,74.8 µM
same,TGI,NCI-H522 lung,> 100 µM
same,TGI,NCI/ADR-RES ovarian,> 100 µM
same,TGI,OVCAR-3 ovarian,> 100 µM
same,TGI,OVCAR-4 ovarian,> 100 µM
same,TGI,OVCAR-5 ovarian,> 100 µM
same,TGI,OVCAR-8 ovarian,> 100 µM
same,TGI,PC-3 prostate,92.6 µM
same,TGI,RPMI-8226 leukemia,58 µM
same,TGI,RXF 393 renal,> 100 µM
same,TGI,SF-268 CNS,> 100 µM
same,TGI,SF-295 CNS,85.9 µM
same,TGI,SF-539 CNS,> 100 µM
same,TGI,SK-MEL-28 melanoma,> 100 µM
same,TGI,SK-MEL-5 melanoma,78.1 µM
same,TGI,SN12C renal,> 100 µM
same,TGI,SNB-19 CNS,> 100 µM
same,TGI,SNB-75 CNS,> 100 µM
same,TGI,SR leukemia,> 100 µM
same,TGI,SW-620 colon,> 100 µM
same,TGI,T-47D breast,> 100 µM
same,TGI,TK-10 renal,> 100 µM
same,TGI,U251 CNS,85.4 µM
same,TGI,UACC-257 melanoma,86.5 µM
same,TGI,UO-31 renal,> 100 µM
